Assay results from paper PMC7613998, “Development of selective inhibitors of phosphatidylinositol 3-kinase C2α” (Nature Chemical Biology, 2022).

Experiments:
Experiment in all cases: biochemical
Parameters in all cases: SelectScreen Z'-LYTE purified kinase panel, per cent inhibition, mean of two points
Settings in all cases: (μM)=Km app
PDGFRB (PDGFR beta) = PDGFRB (PDGFR beta) (Homo sapiens, UniProt P09619)
TYK2 = TYK2 (Homo sapiens, UniProt P29597)
PLK1 = PLK1 (Homo sapiens, UniProt P53350)
AXL = biological target: T1, AXL (Homo sapiens, UniProt P30530)
T1 sequence (P30530 1-894): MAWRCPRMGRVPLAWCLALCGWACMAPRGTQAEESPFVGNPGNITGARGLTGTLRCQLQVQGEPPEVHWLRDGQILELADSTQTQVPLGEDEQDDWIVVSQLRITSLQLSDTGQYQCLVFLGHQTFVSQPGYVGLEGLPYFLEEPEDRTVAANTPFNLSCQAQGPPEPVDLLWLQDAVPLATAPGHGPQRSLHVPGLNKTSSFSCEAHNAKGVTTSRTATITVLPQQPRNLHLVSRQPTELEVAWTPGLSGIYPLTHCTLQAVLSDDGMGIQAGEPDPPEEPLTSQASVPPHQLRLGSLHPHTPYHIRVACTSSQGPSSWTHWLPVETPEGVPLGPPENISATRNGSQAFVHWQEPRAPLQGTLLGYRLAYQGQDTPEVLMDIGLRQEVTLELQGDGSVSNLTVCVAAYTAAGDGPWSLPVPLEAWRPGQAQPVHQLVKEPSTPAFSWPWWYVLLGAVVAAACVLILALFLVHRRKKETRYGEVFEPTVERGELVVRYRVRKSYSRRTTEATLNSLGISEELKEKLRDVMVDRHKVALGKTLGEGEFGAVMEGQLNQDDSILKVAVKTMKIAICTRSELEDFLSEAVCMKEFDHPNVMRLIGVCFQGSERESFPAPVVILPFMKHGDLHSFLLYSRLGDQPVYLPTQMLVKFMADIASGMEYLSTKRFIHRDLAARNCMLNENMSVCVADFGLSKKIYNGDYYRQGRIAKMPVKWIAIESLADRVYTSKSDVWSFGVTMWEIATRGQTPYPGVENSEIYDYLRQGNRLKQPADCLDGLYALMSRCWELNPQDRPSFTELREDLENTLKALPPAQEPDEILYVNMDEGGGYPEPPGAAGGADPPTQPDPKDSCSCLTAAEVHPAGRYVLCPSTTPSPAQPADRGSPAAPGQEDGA

DCAMKL1 (DCLK1) = biological target: T2, DCAMKL1 (DCLK1) (Homo sapiens, UniProt O15075)
T2 sequence (O15075 1-740): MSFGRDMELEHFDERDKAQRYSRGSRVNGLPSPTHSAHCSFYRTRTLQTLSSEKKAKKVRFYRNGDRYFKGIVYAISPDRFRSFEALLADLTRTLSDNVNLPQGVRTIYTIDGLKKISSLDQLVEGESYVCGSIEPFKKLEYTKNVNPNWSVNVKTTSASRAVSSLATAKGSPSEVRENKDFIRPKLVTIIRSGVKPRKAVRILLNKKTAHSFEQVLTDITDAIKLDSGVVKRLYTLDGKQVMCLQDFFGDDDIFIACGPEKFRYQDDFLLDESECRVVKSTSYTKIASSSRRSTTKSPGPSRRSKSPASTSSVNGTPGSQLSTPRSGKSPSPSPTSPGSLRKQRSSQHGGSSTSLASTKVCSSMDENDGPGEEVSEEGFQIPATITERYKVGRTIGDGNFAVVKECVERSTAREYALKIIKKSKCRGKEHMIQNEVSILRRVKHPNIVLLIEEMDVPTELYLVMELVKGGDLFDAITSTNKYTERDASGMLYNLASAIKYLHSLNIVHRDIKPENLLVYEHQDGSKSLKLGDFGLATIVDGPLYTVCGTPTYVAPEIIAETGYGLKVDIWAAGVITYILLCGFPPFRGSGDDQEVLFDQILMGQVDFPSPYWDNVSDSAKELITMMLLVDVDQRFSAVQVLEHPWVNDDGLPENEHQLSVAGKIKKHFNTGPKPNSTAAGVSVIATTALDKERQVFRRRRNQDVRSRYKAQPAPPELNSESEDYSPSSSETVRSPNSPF

ERBB2 (HER2) = ERBB2 (HER2) (Homo sapiens, UniProt P04626)
PRKACA (PKA) = PRKACA (PKA) (Homo sapiens, UniProt P17612)
CSNK1G2 (CK1 gamma 2) = CSNK1G2 (CK1 gamma 2) (Homo sapiens, UniProt P78368)
JAK2 = JAK2 (Homo sapiens, UniProt O60674)
PAK1 = PAK1 (Homo sapiens, UniProt Q13153)
Chain of PAK1 (Q13153 whole entry): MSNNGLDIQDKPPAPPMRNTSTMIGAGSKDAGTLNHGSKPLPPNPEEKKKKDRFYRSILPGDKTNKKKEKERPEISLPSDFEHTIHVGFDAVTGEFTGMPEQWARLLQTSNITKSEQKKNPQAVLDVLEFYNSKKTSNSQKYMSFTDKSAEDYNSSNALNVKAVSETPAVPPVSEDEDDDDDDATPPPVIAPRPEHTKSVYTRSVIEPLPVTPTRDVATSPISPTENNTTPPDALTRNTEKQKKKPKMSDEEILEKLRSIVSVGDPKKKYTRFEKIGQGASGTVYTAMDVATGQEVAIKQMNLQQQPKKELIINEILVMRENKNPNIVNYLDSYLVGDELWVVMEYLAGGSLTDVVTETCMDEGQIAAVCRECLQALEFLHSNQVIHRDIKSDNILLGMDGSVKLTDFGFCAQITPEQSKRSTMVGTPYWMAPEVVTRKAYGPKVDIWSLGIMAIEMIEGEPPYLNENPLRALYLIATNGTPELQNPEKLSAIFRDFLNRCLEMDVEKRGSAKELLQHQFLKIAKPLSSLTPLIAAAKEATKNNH

Chain of TYK2 (P29597 whole entry): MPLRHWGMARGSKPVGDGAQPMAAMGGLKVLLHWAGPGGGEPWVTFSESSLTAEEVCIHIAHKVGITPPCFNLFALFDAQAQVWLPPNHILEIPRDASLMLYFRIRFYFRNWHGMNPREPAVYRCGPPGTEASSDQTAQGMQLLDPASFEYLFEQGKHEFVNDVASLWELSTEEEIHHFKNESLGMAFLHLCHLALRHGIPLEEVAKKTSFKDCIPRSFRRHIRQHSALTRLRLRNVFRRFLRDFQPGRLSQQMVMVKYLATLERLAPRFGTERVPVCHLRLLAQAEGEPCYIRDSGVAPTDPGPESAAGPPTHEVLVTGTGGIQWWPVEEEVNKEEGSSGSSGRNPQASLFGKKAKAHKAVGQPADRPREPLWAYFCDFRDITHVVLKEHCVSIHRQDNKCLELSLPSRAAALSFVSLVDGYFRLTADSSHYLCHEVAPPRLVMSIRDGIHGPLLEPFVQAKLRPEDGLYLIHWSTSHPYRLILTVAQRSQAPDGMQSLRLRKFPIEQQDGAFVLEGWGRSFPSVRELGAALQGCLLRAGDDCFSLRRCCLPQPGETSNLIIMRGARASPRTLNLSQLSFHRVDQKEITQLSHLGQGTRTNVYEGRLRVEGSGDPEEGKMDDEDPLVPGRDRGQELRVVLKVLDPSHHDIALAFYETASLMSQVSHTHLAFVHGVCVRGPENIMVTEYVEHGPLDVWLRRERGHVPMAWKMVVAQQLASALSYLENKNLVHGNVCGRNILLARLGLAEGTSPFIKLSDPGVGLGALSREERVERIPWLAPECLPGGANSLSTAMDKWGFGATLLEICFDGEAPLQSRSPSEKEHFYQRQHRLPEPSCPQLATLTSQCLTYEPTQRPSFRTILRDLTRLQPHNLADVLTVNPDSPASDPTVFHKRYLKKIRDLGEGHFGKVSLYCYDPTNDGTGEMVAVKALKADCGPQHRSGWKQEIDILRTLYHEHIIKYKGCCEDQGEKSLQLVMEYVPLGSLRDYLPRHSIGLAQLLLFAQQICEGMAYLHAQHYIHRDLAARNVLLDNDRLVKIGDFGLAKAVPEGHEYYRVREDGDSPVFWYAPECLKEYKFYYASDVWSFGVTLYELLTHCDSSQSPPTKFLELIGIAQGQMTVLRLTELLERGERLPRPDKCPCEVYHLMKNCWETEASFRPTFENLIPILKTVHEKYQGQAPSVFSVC
Chain of PDGFRB (PDGFR beta) (P09619 whole entry): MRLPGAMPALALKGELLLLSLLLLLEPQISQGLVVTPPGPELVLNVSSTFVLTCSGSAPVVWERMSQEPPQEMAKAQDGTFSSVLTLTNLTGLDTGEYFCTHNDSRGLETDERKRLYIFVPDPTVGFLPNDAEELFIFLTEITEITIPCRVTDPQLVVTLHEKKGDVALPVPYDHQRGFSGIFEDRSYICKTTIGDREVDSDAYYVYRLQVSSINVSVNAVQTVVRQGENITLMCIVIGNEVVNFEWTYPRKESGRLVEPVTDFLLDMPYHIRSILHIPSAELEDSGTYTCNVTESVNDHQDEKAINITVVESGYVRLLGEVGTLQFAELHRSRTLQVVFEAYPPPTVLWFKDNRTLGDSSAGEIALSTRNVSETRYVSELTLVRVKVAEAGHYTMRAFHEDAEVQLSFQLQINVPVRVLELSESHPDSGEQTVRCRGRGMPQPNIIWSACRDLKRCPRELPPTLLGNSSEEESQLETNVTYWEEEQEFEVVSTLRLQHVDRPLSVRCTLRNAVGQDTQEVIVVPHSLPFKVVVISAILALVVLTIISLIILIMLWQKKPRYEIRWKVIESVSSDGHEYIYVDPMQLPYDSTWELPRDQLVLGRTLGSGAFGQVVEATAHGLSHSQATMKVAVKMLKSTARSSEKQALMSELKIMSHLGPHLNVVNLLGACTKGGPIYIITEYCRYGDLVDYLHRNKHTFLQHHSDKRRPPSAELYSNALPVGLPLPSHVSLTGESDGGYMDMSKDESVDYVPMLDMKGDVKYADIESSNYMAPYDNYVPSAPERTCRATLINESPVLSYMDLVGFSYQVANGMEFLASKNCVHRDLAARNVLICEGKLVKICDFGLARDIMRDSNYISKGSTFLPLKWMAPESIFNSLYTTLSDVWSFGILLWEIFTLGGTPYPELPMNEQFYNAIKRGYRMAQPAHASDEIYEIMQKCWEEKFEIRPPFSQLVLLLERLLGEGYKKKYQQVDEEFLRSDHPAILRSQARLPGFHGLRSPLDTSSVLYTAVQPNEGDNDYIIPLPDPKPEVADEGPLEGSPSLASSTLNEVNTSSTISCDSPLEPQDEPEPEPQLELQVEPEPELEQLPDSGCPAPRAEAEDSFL
Chain of PLK1 (P53350 whole entry): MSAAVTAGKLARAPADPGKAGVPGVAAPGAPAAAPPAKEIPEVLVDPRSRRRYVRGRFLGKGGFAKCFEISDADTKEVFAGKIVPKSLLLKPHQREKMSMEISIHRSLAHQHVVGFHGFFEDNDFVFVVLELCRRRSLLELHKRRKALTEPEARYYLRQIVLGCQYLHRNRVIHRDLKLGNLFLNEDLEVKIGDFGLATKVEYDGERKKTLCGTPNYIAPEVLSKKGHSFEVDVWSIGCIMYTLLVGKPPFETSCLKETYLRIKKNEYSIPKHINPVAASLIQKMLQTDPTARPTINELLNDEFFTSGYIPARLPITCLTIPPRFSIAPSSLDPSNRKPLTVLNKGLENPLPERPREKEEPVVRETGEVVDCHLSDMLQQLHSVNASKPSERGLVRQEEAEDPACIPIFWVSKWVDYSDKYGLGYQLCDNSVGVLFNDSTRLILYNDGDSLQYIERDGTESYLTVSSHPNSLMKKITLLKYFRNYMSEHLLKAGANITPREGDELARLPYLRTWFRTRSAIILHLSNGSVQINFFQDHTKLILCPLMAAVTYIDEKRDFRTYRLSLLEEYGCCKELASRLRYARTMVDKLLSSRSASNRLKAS
Chain of CSNK1G2 (CK1 gamma 2) (P78368 whole entry): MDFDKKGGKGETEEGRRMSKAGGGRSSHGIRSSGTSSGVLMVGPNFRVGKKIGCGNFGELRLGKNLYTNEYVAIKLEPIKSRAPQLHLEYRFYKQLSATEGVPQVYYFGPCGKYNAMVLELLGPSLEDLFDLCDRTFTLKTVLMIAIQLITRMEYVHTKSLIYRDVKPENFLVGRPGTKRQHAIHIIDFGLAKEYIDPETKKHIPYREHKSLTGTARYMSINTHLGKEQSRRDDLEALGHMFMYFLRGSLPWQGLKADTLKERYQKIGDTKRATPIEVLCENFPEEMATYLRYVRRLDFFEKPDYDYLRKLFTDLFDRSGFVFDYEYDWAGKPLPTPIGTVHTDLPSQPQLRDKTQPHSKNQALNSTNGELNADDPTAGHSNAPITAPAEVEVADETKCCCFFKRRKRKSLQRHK
Chain of JAK2 (O60674 whole entry): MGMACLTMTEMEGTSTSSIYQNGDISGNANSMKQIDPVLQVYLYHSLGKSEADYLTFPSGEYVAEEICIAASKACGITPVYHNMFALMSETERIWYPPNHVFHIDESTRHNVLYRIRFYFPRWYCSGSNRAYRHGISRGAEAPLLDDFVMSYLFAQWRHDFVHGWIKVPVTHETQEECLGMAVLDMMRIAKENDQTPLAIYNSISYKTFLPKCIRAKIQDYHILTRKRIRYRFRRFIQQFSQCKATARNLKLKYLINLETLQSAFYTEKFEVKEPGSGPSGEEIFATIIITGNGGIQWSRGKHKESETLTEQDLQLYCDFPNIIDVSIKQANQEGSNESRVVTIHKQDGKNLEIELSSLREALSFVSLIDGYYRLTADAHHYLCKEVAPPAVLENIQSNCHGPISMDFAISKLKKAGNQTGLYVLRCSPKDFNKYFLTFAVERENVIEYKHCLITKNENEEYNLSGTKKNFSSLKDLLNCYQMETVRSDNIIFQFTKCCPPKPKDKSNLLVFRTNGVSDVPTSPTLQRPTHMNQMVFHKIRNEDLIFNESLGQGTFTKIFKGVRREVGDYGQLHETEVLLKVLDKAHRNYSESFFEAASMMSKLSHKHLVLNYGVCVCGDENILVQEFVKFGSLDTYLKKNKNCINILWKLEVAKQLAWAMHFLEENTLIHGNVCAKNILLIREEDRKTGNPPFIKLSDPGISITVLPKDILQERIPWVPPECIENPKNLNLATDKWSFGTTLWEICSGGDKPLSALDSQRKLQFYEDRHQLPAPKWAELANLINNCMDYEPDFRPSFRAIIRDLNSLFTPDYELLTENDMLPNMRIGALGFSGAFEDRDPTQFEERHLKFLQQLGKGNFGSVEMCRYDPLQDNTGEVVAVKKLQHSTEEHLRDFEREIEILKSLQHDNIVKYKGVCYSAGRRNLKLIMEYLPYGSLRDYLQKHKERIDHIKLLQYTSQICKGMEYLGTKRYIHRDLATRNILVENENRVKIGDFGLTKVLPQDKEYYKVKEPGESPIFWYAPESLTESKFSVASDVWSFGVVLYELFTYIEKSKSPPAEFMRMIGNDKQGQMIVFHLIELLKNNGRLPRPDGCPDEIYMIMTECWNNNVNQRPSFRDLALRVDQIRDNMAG

Row | SMILES | inhibition at 1 µM (PDGFRB (PDGFR beta)) [%] | inhibition at 3 µM (PDGFRB (PDGFR beta)) [%] | inhibition at 10 µM (PDGFRB (PDGFR beta)) [%] | inhibition at 1 µM (TYK2) [%] | inhibition at 3 µM (TYK2) [%] | inhibition at 10 µM (TYK2) [%] | inhibition at 1 µM (PLK1) [%] | inhibition at 3 µM (PLK1) [%] | inhibition at 10 µM (PLK1) [%] | inhibition at 1 µM (AXL) [%] | inhibition at 3 µM (AXL) [%] | inhibition at 10 µM (AXL) [%] | inhibition at 1 µM (DCAMKL1 (DCLK1)) [%] | inhibition at 3 µM (DCAMKL1 (DCLK1)) [%] | inhibition at 10 µM (DCAMKL1 (DCLK1)) [%] | inhibition at 1 µM (ERBB2 (HER2)) [%] | inhibition at 3 µM (ERBB2 (HER2)) [%] | inhibition at 10 µM (ERBB2 (HER2)) [%] | inhibition at 1 µM (PRKACA (PKA)) [%] | inhibition at 3 µM (PRKACA (PKA)) [%] | further results
1 | O=C(CSc1nc2nccnc2c(=O)n1CCc1ccccc1)Nc1nccs1 [compound 1, PITCOIN1] | -2.01 | -3.23 | 6.51 | -4.9 | -7.09 | -1.29 | 8.77 | 11 | 10.9 | -3.88 | -5.8 | -2.92 | -1.36 | -3.92 | 1.03 | -9.9 | -2.96 | -11.6 | 9.73 | 5.23 | inhibition at 10 µM (PRKACA (PKA)): 4.58%; inhibition at 1 µM (CSNK1G2 (CK1 gamma 2)): 0.334%; inhibition at 3 µM (CSNK1G2 (CK1 gamma 2)): 6.89%; inhibition at 10 µM (CSNK1G2 (CK1 gamma 2)): 8.12%; inhibition at 1 µM (JAK2): 0.852%; inhibition at 3 µM (JAK2): -8.02%; inhibition at 10 µM (JAK2): -7.27%; inhibition at 1 µM (PAK1): -5.17%; inhibition at 3 µM (PAK1): -2.58%; inhibition at 10 µM (PAK1): -1.88%
2 | CS(=O)(=O)Nc1cccc(-c2csc(NC(=O)CSc3nc4nccnc4c(=O)n3CCc3ccccc3)n2)c1 [compound 3, PITCOIN3] | 4.69 | -3.18 | 1.91 | 3.78 | -2.18 | 4.5 | 9.36 | 10 | 7.66 | -4.95 | -1.87 | -3.45 | -7.05 | -11.7 | 13.7 | -1.62 | -3.07 | -10.7 | 9.77 | 8.29 | inhibition at 10 µM (PRKACA (PKA)): 5.74%; inhibition at 1 µM (CSNK1G2 (CK1 gamma 2)): 7.85%; inhibition at 3 µM (CSNK1G2 (CK1 gamma 2)): 15.6%; inhibition at 10 µM (CSNK1G2 (CK1 gamma 2)): 13.7%; inhibition at 1 µM (JAK2): -4.04%; inhibition at 3 µM (JAK2): -2.51%; inhibition at 10 µM (JAK2): -3.7%; inhibition at 1 µM (PAK1): 21.4%; inhibition at 3 µM (PAK1): -0.318%; inhibition at 10 µM (PAK1): 19.2%
